From US20260132160A1, “IRON REPLACEMENT TREATMENTS” (The General Hospital Corporation, priority 2022, published 2026)

What was measured:
[1] = Stability of Fe-BBG against trans-chelation by endogenous chelators (UV-vis); type: physicochemical
Source text: In other words, the ligand BBG binds to Fe^3+ with an estimated 230±40 times higher affinity than citrate.

holo-transferrin = holo-transferrin (Homo sapiens, UniProt P02787); assay: Fe removal from holo-transferrin by BBG ligand; type: biochemical; details: 24 h, pH 7.4, 37° C.
Experimental: Solutions of 20 μM holo-transferrin and BBG of concentration ranging between 0 and 100 μM (0-5 molar equivalents) were incubated for 24 h in pH 7.4 50 mM HEPES buffer supplemented with 25 mM carbonate at 37° C., and Fe removal from transferrin was monitored using fluorescence spectroscopy (excitation wavelength: 280 nm).
In another experiment, […] holo-transferrin and was incubated with 100 μM BBG (10 molar equivalents) for 24 h in pH 7.4 50 mM HEPES buffer supplemented with 25 mM carbonate at 37° C., and Fe removal monitored by urea gel electrophoresis assay, FIG. 11B.

[2] = pH-potentiometric titration, Cu2+ complex; type: physicochemical; details: pH 7.4
Experimental: (§1) The aqueous solutions thermodynamics of BBG and its corresponding complexes of Fe^3+, Cu^2+, and Zn^2+ were interrogated through pH-potentiometric titration of BBG (L) in the absence and presence of 1 molar equivalent of Fe^3+, Cu^2+, or Zn^2+, FIG. 13A.
(§2) pH-potentiometric measurements were performed using an Orion ROSS Ultra pH electrode and temperature-controlled reaction vessel held at 310 K. A standardized solution of 0.10 M NaOH was used as the titrant. The electrode was calibrated prior to each titration by titrating a standardized HCl(aq) solution at ionic strength 0.10 using NaCl as the inert electrolyte with the standardized NaOH titrant. A working slope and intercept were generated by plotting mV as a function of calculated pH, which enabled direct conversion of electrode readings to [H^+] during sample titrations. pH values recorded during the titrations refers to hydrogen ion concentration. All titration samples were prepared in solutions of 0.10 M NaCl in distilled, deionized water. Ligand solutions were prepared by dissolving a weighed quantity into water and concentration was determined from the effective weight of the ligand and confirmed by the quantity of NaOH required to consume 1 molar equivalent of ligand proton. […]

[3] = pH-potentiometric titration, Zn2+ complex; type: physicochemical; details: pH 7.4
Experimental: as §1, §2

[4] = Human blood plasma incubation, ultrafiltration and ICP-MS of metals; details: 0-5 mM BBG, 1 h, 37° C., 10 kDa cutoff
Experimental: The plasma concentrate and ultrafiltrate were assayed for concentrations of Cu and Zn, as well as Mn, Mg, and Ca by ICP-MS.
To illustrate this point, human blood plasma samples containing between 0-5 mM BBG were incubated for 1 h at 37° C. before separation of the low-molecular weight solution components by ultrafiltration through a 10 kDa molecular weight cutoff filter. The plasma concentrate and ultrafiltrate were assayed for concentrations of Cu and Zn, as well as Mn, Mg, and Ca by ICP-MS, FIG. 14.

[5] = cited from earlier work

Chain of holo-transferrin (P02787 20-698): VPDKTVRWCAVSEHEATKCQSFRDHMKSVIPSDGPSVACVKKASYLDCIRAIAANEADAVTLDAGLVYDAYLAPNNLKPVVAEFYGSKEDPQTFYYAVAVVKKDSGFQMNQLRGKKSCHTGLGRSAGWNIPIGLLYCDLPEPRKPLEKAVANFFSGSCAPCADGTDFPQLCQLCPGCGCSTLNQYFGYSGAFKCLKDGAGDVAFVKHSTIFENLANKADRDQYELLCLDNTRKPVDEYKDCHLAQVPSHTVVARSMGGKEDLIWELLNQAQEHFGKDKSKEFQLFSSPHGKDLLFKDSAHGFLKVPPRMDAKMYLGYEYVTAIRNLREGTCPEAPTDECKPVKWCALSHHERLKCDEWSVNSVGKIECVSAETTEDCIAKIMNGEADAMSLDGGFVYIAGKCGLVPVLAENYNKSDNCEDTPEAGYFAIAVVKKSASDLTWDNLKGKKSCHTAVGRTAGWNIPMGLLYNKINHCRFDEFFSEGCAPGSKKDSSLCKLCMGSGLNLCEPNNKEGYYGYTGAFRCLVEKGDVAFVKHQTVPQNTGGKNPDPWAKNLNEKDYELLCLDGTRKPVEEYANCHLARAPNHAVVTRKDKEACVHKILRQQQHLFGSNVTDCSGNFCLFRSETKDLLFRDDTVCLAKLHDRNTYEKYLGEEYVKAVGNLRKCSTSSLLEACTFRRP

| Fe^3+ affinity relative to endogenous chelators [1] | Fe^3+ affinity relative to citrate ([1]; estimated from citrate challenge) | Fe removal from transferrin (urea gel electrophoresis) (holo-transferrin; 10 μM holo-transferrin, 100 μM BBG (10 molar equivalents)) | Fe removal from transferrin (fluorescence spectroscopy) (holo-transferrin; 20 μM holo-transferrin, 0-100 μM BBG) | greater stability of Fe^3+ binding than Cu^2+ [2] | greater stability of Fe^3+ binding than Zn^2+ [3] | metal ion content remaining in the plasma concentrate [4] | Molecule | log Kcond at pH 7.4 for Fe^3+, first binding site [5] | log Kcond at pH 7.4 for Fe^3+, second binding site [5] |
| --- | --- | --- | --- | --- | --- | --- | --- | --- | --- |
| substantially higher affinity | 230±40 times | No evidence of Fe removal | No evidence of Fe removal | 9 orders of magnitude | 15 orders of magnitude | little effect | O=C(O)CC[C@@H](C(=O)O)N(Cc1ccccc1O)Cc1ccccc1O [BBG, N,N-bis(2-hydroxybenzyl)-L-glutamic acid] |  |  |
|  |  |  |  |  |  |  | transferrin: the iron carrier protein transferrin | about 20.7 | ~19.4 |
